We go through 13 compounds from ChEMBL document CHEMBL1131815, “Derivatives of (R)-2-amino-5-methoxytetralin: antagonists and inverse agonists at the dopamine D2A receptor” (Bioorg Med Chem Lett, 1999).

Experiment [1] deals with T1, D(2) dopamine receptor (Homo sapiens, UniProt P14416). Nature of the experiment: Displacement of [3H]raclopride from human dopamine D2A receptors expressed in LtK cells. The class given is cell-based. (In general: Displacement assays read how much labelled ligand stays bound in the presence of the test substance.)
Experiment [2] has as its target T1, D(2) dopamine receptor.
Experiment [3] addresses T1, D(2) dopamine receptor. Nature of the experiment: Displacement of [3H]quinpirole from human dopamine D2A receptors expressed in LtK cells. The class given is cell-based.

SMILES strings stand for the structures. Some results are limits rather than exact numbers.

T1 sequence (P14416 whole entry): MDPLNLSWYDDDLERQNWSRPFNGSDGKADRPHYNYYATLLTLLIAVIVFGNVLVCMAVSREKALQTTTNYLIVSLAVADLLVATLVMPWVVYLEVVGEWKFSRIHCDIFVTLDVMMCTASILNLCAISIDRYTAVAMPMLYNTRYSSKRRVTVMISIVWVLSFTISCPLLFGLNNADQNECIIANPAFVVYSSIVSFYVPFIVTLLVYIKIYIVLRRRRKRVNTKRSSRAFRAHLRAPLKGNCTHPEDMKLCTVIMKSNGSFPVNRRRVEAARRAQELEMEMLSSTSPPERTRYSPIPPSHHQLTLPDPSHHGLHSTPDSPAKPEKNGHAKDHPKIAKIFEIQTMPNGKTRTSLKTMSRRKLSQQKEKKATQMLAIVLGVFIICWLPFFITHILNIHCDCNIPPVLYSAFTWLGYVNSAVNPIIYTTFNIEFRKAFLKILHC

Turning to `CCCN(Cc1ccco1)[C@@H]1CCc2c(cccc2OC)C1`, the Ki (usually a measure of affinity in units of concentration, obtained from inhibition or displacement) at D(2) dopamine receptor [1] was determined as 125 nM; at D(2) dopamine receptor [3], 118 nM. This compound also registered a nH at D(2) dopamine receptor [2] of 0.83.

In turn, `CCCN(CCC)[C@@H]1CCc2c(F)cccc2C1` showed a nH on D(2) dopamine receptor [2] of 0.89.

In the case of `CCCN(Cc1ccc(OC)cc1)[C@@H]1CCc2c(cccc2OC)C1`, the Ki on D(2) dopamine receptor [1] was determined as 22 nM; at D(2) dopamine receptor [3], 64.1 nM. Further, the nH on D(2) dopamine receptor [2] is 0.94.

For the compound `CCCN(Cc1ccc(F)cc1)[C@@H]1CCc2c(cccc2OC)C1`, the Ki came to 43.8 nM at D(2) dopamine receptor [1] and 69.7 nM on D(2) dopamine receptor [3]. Besides, the nH at D(2) dopamine receptor [2] came out at 0.9.

For `CCCN(Cc1ccccc1)[C@@H]1CCc2c(cccc2OC)C1`, the Ki was 65.6 nM on D(2) dopamine receptor [1] and 75 nM at D(2) dopamine receptor [3]. At D(2) dopamine receptor [2], this compound showed a nH of 1.05.

For `COc1cccc2c1CC[C@@H](N(Cc1ccccc1)Cc1ccccc1)C2`, the inhibition constant Ki at D(2) dopamine receptor [1] and on D(2) dopamine receptor [3] was over 5000 nM in each case.

Turning to `CCCN[C@@H]1CCc2c(cccc2OC)C1`, the Ki on D(2) dopamine receptor [1] is 114 nM; at D(2) dopamine receptor [3] it was 82.3 nM. Also, at D(2) dopamine receptor [2], the nH was found to be 1.06.

With `CCCN(Cc1ccc([N+](=O)[O-])cc1)[C@@H]1CCc2c(cccc2OC)C1`, the Ki was determined as 59.2 nM at D(2) dopamine receptor [1] and 215 nM on D(2) dopamine receptor [3]. Also, the nH on D(2) dopamine receptor [2] turned out to be 0.9.

In turn, `CCCN(Cc1ccccc1)[C@@H]1CCc2c(F)cccc2C1` returned a nH at D(2) dopamine receptor [2] of 0.86.

In the case of `NCCc1ccc(O)c(O)c1`, on D(2) dopamine receptor [2], the nH came out at 0.65.

In the case of `COc1cccc2c1CC[C@@H](NCc1ccccc1)C2`, the figures for the Ki on D(2) dopamine receptor [1] and on D(2) dopamine receptor [3] were 1010 nM and 1310 nM, respectively. The nH at D(2) dopamine receptor [2] was found to be 0.83.

In the case of `CCCN(CCC)[C@@H]1CCc2c(cccc2OC)C1`, the Ki on D(2) dopamine receptor [1] came out at 46 nM; at D(2) dopamine receptor [3], 6.35 nM. The nH on D(2) dopamine receptor [2] amounted to 1.06.

As to `CCCN(Cc1cccs1)[C@@H]1CCc2c(cccc2OC)C1`, the inhibition constant (Ki) at D(2) dopamine receptor [1] is 152 nM; at D(2) dopamine receptor [3], 339 nM. Besides, on D(2) dopamine receptor [2], the nH worked out at 0.9.
